Literature values, collected in PMC7745548 (International Journal of Tryptophan Research : IJTR, 2020).

Key:
CYP2C9 = conditions: O-demethylation major pathway
[1] = tested on: human microsomal P450 1A2 (CYP1A2); conditions: different crystal structure (PDB code: 1FAG) ref 26, 28

Metabolism by CYP1A2 (CYP1A2) | Metabolism by CYP2C9 (CYP2C9) | Distance between SOM and Fe(II) ion of heme [1] [Å] | SMILES
only slightly metabolised by CYP1A2 | mainly metabolised by CYP2C9 | – | COc1ccc2c(c1)c(CC(=O)O)c(C)n2C(=O)c1ccc(Cl)cc1 [Indomethacin]
– | – | 4.15 | COc1ccc2[nH]cc(CCNC(C)=O)c2c1 [MLT, N-acetyl-5-methoxytryptamine]
